We go through 1 substance from patent publication US6689349B1, “Skin protection agents containing a fragment mixture produced from hyaluronic acid by hydrolysis” (esparma GmbH, priority 1998, dated 2004).

The nature of data set [1]: lucigenin-reinforced xanthine oxidase test (radical binding, chemiluminescence). Type of data set: biochemical. The following applies: cell-free system. As to the method:
The property of binding reducing radicals, is measured in cell-free systems with a lucigenin-reinforced xanthine oxidase test on the basis of the conversion of hypoxanthine to uric acid. The O2-radicals produced in this process can be detected with lucigenin by relative chemiluminescence measurement. By the radical scavengers present, the O2-radicals are neutralised and the chemiluminescence yield reduced. […] An amount of 1 mg of the hyaluronic acid fragment according to the invention with a relative molar mass of 100 to 160 kD has a radical-binding activity which corresponds to that of 200 to 400 μg allopurinol. Hyaluronic acid with a relative molar mass of 1,800 kD has, on the other hand, a negligible radical-binding activity (Pierce, L. A., W. O. Tarnow-Mordi and I. A, Cree: Antibiotics Effects on Phagocyte Chemilunieszence in Vitro. In J. Clin. Lab. Res.- (1995) 25, 93-98).

Data set [2] concerns HaCaT keratinocytes. In words: toxicity test: DNA synthesis performance by BrdU incorporation. Type of data set: cell-based, human. The following applies: 24-hour incubation. On the procedure: In order to characterise the influence of hyaluronic acid fragments of differing relative molar mass on the proliferation behaviour of human keratinocytes (HaCaT keratinocytes—made available by Prof. Dr. Norbert E. Fusenig: Deutsches Krebsforschungsinstitut Heidelberg, Germany), the DNA synthesis performance is determined with the aid of BrdU incorporation (Cell Proliferation ELISA, BrdU calorimetric—Boehringer Mannheim, Mannheim, Germany) into the DNA after a 24-hour period of incubation. For the following hyaluronic acid fragments examined, no toxic reaction of the cells could be observed.
(In general: Incorporation of labelled thymidine or its analogues reports DNA synthesis.)

On to hyaluronic acid, for which, in data set [1], the radical-binding activity result is given as “negligible”. Further, in data set [2], the “toxic reaction of the cells / tolerance (DNA synthesis performance, BrdU incorporation)” value was “very good tolerance”.
